Source: BigSolDB 2.1

Nc1cccc(C(=O)O)c1O
solubility (mole fraction)
Conditions	293.2 K	298.2 K	303.2 K	308.2 K	313.2 K
in n-propanol	0.000339	0.00046	0.000522	0.00058	0.000681
in water	0.00012	0.000122	0.000139	0.000148	0.000165
